According to PMC7775894 (Bioorganic chemistry, 2020):
≈ marks a conversion by molar mass, not a printed value. Where “and” joins values, the source holds several entries; their conditions need not be identical. Identical values can stand only once. Like-named read-outs stand apart in the source and are kept apart here.

Tests used:
[1] = tested on: M. tb V2475/MDR; test: microbe, parasite or virus in culture; assay type: cell-based; conditions: Mycobacterium tuberculosis, read-out: M. tb MIC V2475/MDR
[2] = tested on: M. tb TF274/XDR; test: microbe, parasite or virus in culture; assay type: cell-based; conditions: Mycobacterium tuberculosis, read-out: M. tb MIC TF274/XDR
[3] = tested on: M. tb KZN494/MDR; test: microbe, parasite or virus in culture; assay type: cell-based; conditions: Mycobacterium tuberculosis, read-out: M. tb MIC KZN494/MDR
[4] = tested on: M. tb R506/XDR; test: microbe, parasite or virus in culture; assay type: cell-based; conditions: Mycobacterium tuberculosis, read-out: M. tb MIC R506/XDR
[5] = tested on: M. tb H37Rv strain; conditions: cited from earlier work

SMILES | MIC [1] | MIC [2] | MIC [3] | MIC [4] | MIC ([5]; ref 22) | MIC ([5]; listed as ethambutol)
Cc1ccc2[nH]c(C(=O)NC34CC5CC(CC(C5)C3)C4)cc2c1 [8f, N-(1-Adamantyl)-5-methyl-1H-indole-2-carboxamide] | 0.2 µM (≈ 0.0617 µg/mL) | 0.1 to 0.2 µM (≈ 0.0308 to 0.0617 µg/mL) | 0.2 µM (≈ 0.0617 µg/mL) | 0.1 to 0.2 µM (≈ 0.0308 to 0.0617 µg/mL) |  | 
COc1ccc2[nH]c(C(=O)NC34CC5CC(CC(C5)C3)C4)cc2c1 [8d, N-(1-Adamantyl)-5-methoxy-1H-indole-2-carboxamide] | 0.39 to 0.77 µM (≈ 0.127 to 0.25 µg/mL) | 0.39 µM (≈ 0.127 µg/mL) | 0.39 µM (≈ 0.127 µg/mL) | 0.39 µM (≈ 0.127 µg/mL) |  | 
O=C(Nc1ccc(F)c(F)c1F)NC1C2CC3CC(C2)CC1C3 (centres unmarked) [compound 4] |  |  |  |  | 0.096 to 0.19 µM | 
NNC(=O)c1ccncc1 [INH, isoniazid] |  |  |  |  | 0.29 μM and 0.29 [22] μM | 
O=C(NC12CC3CC(CC(O)(C3)C1)C2)c1cc2c(F)cc(F)cc2[nH]1 [8l, 4,6-difluoro-N-(3-hydroxyadamantan-1-yl)-1H-indole-2-carboxamide] | 5.77 µM (≈ 2 µg/mL) | 1.44 µM (≈ 0.499 µg/mL) | 2.89 µM (≈ 1 µg/mL) | 2.89 µM (≈ 1 µg/mL) |  | 
O=C(NC12CC3CC(CC(O)(C3)C1)C2)c1cc2ccc(Br)cc2[nH]1 [8i, 6-bromo-N-(3-hydroxyadamantan-1-yl)-1H-indole-2-carboxamide] | 5.14 µM (≈ 2 µg/mL) | 2.57 µM (≈ 1 µg/mL) | 2.57 to 5.14 µM (≈ 1 to 2 µg/mL) | 2.57 µM (≈ 1 µg/mL) |  | 
O=C(O)c1cn(C2CC2)c2cc(N3CCNCC3)c(F)cc2c1=O [CPF, Ciprofloxacin, reference compound] |  | 6.04 µM (≈ 2 µg/mL) |  | 6.04 µM (≈ 2 µg/mL) |  | 
O=C(NC12CC3CC(CC(O)(C3)C1)C2)c1cc2c(Cl)cc(Cl)cc2[nH]1 [8j, 4,6-dichloro-N-(3-hydroxyadamantan-1-yl)-1H-indole-2-carboxamide] | 2.64 µM (≈ 1 µg/mL) | 0.66 µM (≈ 0.25 µg/mL) | 1.32 µM (≈ 0.501 µg/mL) | 0.66 µM (≈ 0.25 µg/mL) |  | 
O=C(NC12CC3CC(CC(C3)C1)C2)c1cc2c(F)cc(F)cc2[nH]1 [8k, N-(1-Adamantyl)-4,6-difluoro-1H-indole-2-carboxamide] | 0.024 µM (≈ 0.00793 µg/mL) | 0.012 µM (≈ 0.00396 µg/mL) | 0.024 µM (≈ 0.00793 µg/mL) | 0.012 µM (≈ 0.00396 µg/mL) |  | 
O=C(Nc1cc(Cl)cc(Cl)c1)NC12CC3CC(CC(C3)C1)C2 [10a, 1-(1-Adamantyl)-3-(3,5-dichlorophenyl)urea] | 1.47 to 2.95 µM (≈ 0.499 to 1 µg/mL) | 0.74 µM (≈ 0.251 µg/mL) | 1.47 µM (≈ 0.499 µg/mL) | 0.74 µM (≈ 0.251 µg/mL) |  | 
COc1cccc2[nH]c(C(=O)NC34CC5CC(CC(C5)C3)C4)cc12 [8b, N-(1-Adamantyl)-4-methoxy-1H-indole-2-carboxamide] | 0.096 µM (≈ 0.0311 µg/mL) | 0.024 to 0.048 µM (≈ 0.00779 to 0.0156 µg/mL) | 0.048 µM (≈ 0.0156 µg/mL) | 0.024 to 0.048 µM (≈ 0.00779 to 0.0156 µg/mL) |  | 
CC[C@@H](CO)NCCN[C@@H](CC)CO [EMB, ethambutol] |  |  |  |  | 4.89 [22] μM | 4.89 µM (≈ 0.999 µg/mL)
